Reference: patent publication US20230012368A1 (Hoffmann-La Roche Inc., priority 2018, published 2023)
Structures can show the parent of a compound that is named as a salt. Where two headings read alike, the source gives them in different places.

System: Acinetobacter baumannii ATCC 17978
Assay: Antimicrobial susceptibility testing: 90% growth inhibitory concentration (IC90) determination
Format: cell-based
Conditions: 90% growth inhibitory concentration, Acinetobacter baumannii ATCC17978, Iso-Sensitest broth, OD 600 nm over 16h, read-out: ATCC17978 IC90
In short: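 Compounds serially twofold diluted (e.g. 50 to 0.097 μM final) in Iso-Sensitest broth, inoculated at ~5×10^(5) CFU/ml, incubated at 35±2° C. OD600 read every 20 minutes over 16h. IC90 taken as concentration inhibiting 90% of growth during logarithmic phase.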

[1] = Acinetobacter baumannii, ATCC17978, 16 h

SMILES | IC90 [1] | IC90
CCc1cc(Nc2nccn3c(-c4ccc(OC)c(F)c4F)cnc23)ccc1C(=O)NCCCCCCN [Example 494, N-(6-aminohexyl)-4-((3-(2,3-difluoro-4-methoxyphenyl)imidazo[1,2-a]pyrazin-8-yl)amino)-2-ethylbenzamide hydrochloride] | 37 nM | –
COc1ccc(-c2cnc3c(Nc4ccc(C(=O)NCCCCCCN)c(Cl)c4)nccn23)c(F)c1F [Example 495, N-(6-aminohexyl)-2-chloro-4-((3-(2,3-difluoro-4-methoxyphenyl)imidazo[1,2-a]pyrazin-8-yl)amino)benzamide hydrochloride] | 34 nM | –
N#CCOc1ccc(-c2cnc3c(Nc4ccc(C(=O)NCCCCCN)c(Cl)c4)nccn23)c(F)c1F [Example 496, N-(5-aminopentyl)-2-chloro-4-[[3-[4-(cyanomethoxy)-2,3-difluorophenyl]imidazo[1,2-a]pyrazin-8-yl]amino]benzamide] | 23 nM | –
N#CCOc1ccc(-c2cnc3c(Nc4ccc(C(=O)NCCCCCCN)c(Cl)c4)nccn23)c(F)c1F [Example 497, N-(6-aminohexyl)-2-chloro-4-((3-(4-(cyanomethoxy)-2,3-difluorophenyl)imidazo[1,2-a]pyrazin-8-yl)amino)benzamide] | 25 nM | –
COc1ccc(-c2cnc3c(Nc4ccc(C(=O)N[C@H](C)CNC(=N)C(C)C)c(C)c4)nccn23)c(F)c1F [Example 498, 4-[[3-(2,3-difluoro-4-methoxyphenyl)imidazo[1,2-a]pyrazin-8-yl]amino]-2-methyl-#N!-[(2#R!)-1-(2-methylpropanimidoylamino)propan-2-yl]benzamide] | 140 nM | –
COc1ccc(-c2cnc3c(Nc4ccc(C(=O)N[C@@H](C)CNC(=N)C(C)C)c(C)c4)nccn23)c(F)c1F [Example 499, 4-[[3-(2,3-difluoro-4-methoxyphenyl)imidazo[1,2-a]pyrazin-8-yl]amino]-2-methyl-#N!-[(2#S!)-1-(2-methylpropanimidoylamino)propan-2-yl]benzamide] | 300 nM | –
COc1ccc(-c2cnc3c(Nc4ccc(C(=O)N[C@@H](C)CNC(=N)C(C)C)c(Cl)c4)nccn23)c(F)c1F [Example 500, 2-chloro-4-[[3-(2,3-difluoro-4-methoxyphenyl)imidazo[1,2-a]pyrazin-8-yl]amino]-#N!- [(2#S!)-1-(2-methylpropanimidoylamino)propan-2-yl]benzamide] | 310 nM | –
COc1ccc(-c2cnc3c(Nc4ccc(C(=O)N[C@H](C)CNC(C)=N)c(Cl)c4)nccn23)c(F)c1F [Example 501, 2-chloro-4-[[3-(2,3-difluoro-4-methoxyphenyl)imidazo[1,2-a]pyrazin-8-yl]amino]-#N!- [(2#R!)-1-(ethanimidoylamino)propan-2-yl]benzamide] | 69 nM | –
CCc1cc(Nc2nccn3c(-c4ccc(OC)c(F)c4F)cnc23)ccc1C(=O)N[C@H](C)CNC(=N)C(C)C [Example 502, 4-[[3-(2,3-difluoro-4-methoxyphenyl)imidazo[1,2-a]pyrazin-8-yl]amino]-2-ethyl-#N!-[(2#R!)-1-(2-methylpropanimidoylamino)propan-2-yl]benzamide] | 150 nM | –
CCc1cc(Nc2nccn3c(-c4ccc(OC)c(F)c4F)cnc23)ccc1C(=O)N[C@@H](C)CNC(=N)C(C)C [Example 503, 4-[[3-(2,3-difluoro-4-methoxyphenyl)imidazo[1,2-a]pyrazin-8-yl]amino]-2-ethyl-#N!-[(2#S!)-1-(2-methylpropanimidoylamino)propan-2-yl]benzamide] | 450 nM | –
COc1ccc(-c2cnc3c(Nc4ccc(C(=O)N[C@H](C)CN)c(Cl)c4)nccn23)c(F)c1F [Example 504, #N!-[(2#R!)-1-aminopropan-2-yl]-2-chloro-4-[[3-(2,3-difluoro-4-methoxyphenyl)imidazo[1,2-a]pyrazin-8-yl]amino]benzamide;dihydro-chloride] | 100 nM | –
COc1ccc(-c2cnc3c(Nc4ccc(C(=O)N[C@@H](C)CN)c(Cl)c4)nccn23)c(F)c1F [Example 505, #N!-[(2#S!)-1-aminopropan-2-yl]-2-chloro-4-[[3-(2,3-difluoro-4-methoxyphenyl)imidazo[1,2-a]pyrazin-8-yl]amino]benzamide;dihydro-chloride] | 270 nM | –
COc1ccc(-c2cnc3c(Nc4ccc(C(=O)N[C@H](C)CN)c(C)c4)nccn23)c(F)c1F [Example 506, #N!-[(2#R!)-1-aminopropan-2-yl]-4-[[3-(2,3-difluoro-4-methoxyphenyl)imidazo[1,2-a]pyrazin-8-yl]amino]-2-methylbenzamide;dihydrochlo-ride] | 130 nM | –
CCc1cc(Nc2nccn3c(-c4ccc(Oc5ccc(C(=O)NCCCN)cn5)c(F)c4F)cnc23)ccc1C(=O)NC [Example 507, N-(3-aminopropyl)-6-[4-[8-[3-ethyl-4-(methylcarbamoyl)anilino]imidazo[1,2-a]pyrazin-3-yl]-2,3-difluoro-phenoxy]pyridine-3-carboxamide; formic acid] | – | 500 nM
COc1ccc(-c2cnc3c(Nc4ccc(C(=O)N[C@@H](C)CN)c(C)c4)nccn23)c(F)c1F [Example 508, #N!-[(2#S!)-1-aminopropan-2-yl]-4-[[3-(2,3-difluoro-4-methoxyphenyl)imidazo[1,2-a]pyrazin-8-yl]amino]-2-methylbenzamide;dihydrochlo-ride] | 320 nM | –
COc1ccc(-c2cnc3c(Nc4ccc(C(=O)N[C@H](C)CNC(=N)C(C)C)c(Cl)c4)nccn23)c(F)c1F [Example 509, (R)-2-chloro-4-((3-(2,3-difluoro-4-methoxyphenyl)imidazo[1,2-a]pyrazin-8-yl)amino)-N-(1-isobutyrimidamidopropan-2-yl)benzamide] | 110 nM | –
CCc1cc(Nc2nccn3c(-c4ccc(Oc5ccc(OCCCN)cn5)c(F)c4F)cnc23)ccc1C(=O)N(C)C [Example 510, 4-[[3-[4-[[5-(3-aminopropoxy)-2-pyridyl]oxy]-2,3-difluoro-phenyl]imidazo[1,2-a]pyrazin-8-yl]amino]-2-ethyl-N,N-dimethyl-benzamide; formic acid] | 860 nM | –
CCc1cc(Nc2nccn3c(-c4ccc(Oc5ccc(OCCCN)cn5)c(F)c4F)cnc23)ccc1C(=O)NC [Example 511, 4-[[3-[4-[[5-(3-aminopropoxy)-2-pyridyl]oxy]-2,3-difluoro-phenyl]imidazo[1,2-a]pyrazin-8-yl]amino]-2-ethyl-N-methyl-benzamide; formic acid] | – | 480 nM
CCc1cc(Nc2nccn3c(-c4ccc(Oc5ccc(OCCN)cn5)c(F)c4F)cnc23)ccc1C(=O)NC [Example 512, 4-[[3-[4-[[5-(2-aminoethoxy)-2-pyridyl]oxy]-2,3-difluoro-phenyl]imidazo[1,2-a]pyrazin-8-yl]amino]-2-ethyl-N-methyl-benzamide; formic acid] | 510 nM | –
COc1ccc(-c2cnc3c(Nc4ccc(C(=O)NCCCCN)c(C)c4)nccn23)c(F)c1F [Example 513, N-(4-aminobutyl)-4-((3-(2,3-difluoro-4-methoxyphenyl)imidazo[1,2-a]pyrazin-8-yl)amino)-2-methylbenzamide hydrochloride] | 50 nM | –
CCc1cc(Nc2nccn3c(-c4ccc(OC)c(F)c4F)cnc23)ccc1C(=O)NCCCCN [Example 514, N-(4-aminobutyl)-4-((3-(2,3-difluoro-4-methoxyphenyl)imidazo[1,2-a]pyrazin-8-yl)amino)-2-ethylbenzamide hydrochloride] | – | 48 nM
COc1ccc(-c2cnc3c(Nc4ccc(C(=O)NCCCCN)c(Cl)c4)nccn23)c(F)c1F [Example 515, N-(4-aminobutyl)-2-chloro-4-((3-(2,3-difluoro-4-methoxyphenyl)imidazo[1,2-a]pyrazin-8-yl)amino)benzamide hydrochloride] | – | 42 nM
COc1ccc(-c2cnc3c(Nc4ccc(C(=O)NCCCCCCCN)c(C)c4)nccn23)c(F)c1F [Example 516, N-(7-aminoheptyl)-4-((3-(2,3-difluoro-4-methoxyphenyl)imidazo[1,2-a]pyrazin-8-yl)amino)-2-methylbenzamide hydrochloride] | – | 34 nM
CCc1cc(Nc2nccn3c(-c4ccc(OC)c(F)c4F)cnc23)ccc1C(=O)NCCCCCCCN [Example 517, N-(7-aminoheptyl)-4-((3-(2,3-difluoro-4-methoxyphenyl)imidazo[1,2-a]pyrazin-8-yl)amino)-2-ethylbenzamide hydrochloride] | – | 67 nM
COc1ccc(-c2cnc3c(Nc4ccc(C(=O)NCCCCCCCN)c(Cl)c4)nccn23)c(F)c1F [Example 518, N-(7-aminoheptyl)-2-chloro-4-((3-(2,3-difluoro-4-methoxyphenyl)imidazo[1,2-a]pyrazin-8-yl)amino)benzamide hydrochloride] | 171 nM | –
N#CCOc1ccc(-c2cnc3c(Nc4ccc(C(=O)NCCCCN)c(Cl)c4)nccn23)c(F)c1F [Example 519, N-(4-aminobutyl)-2-chloro-4-((3-(4-(cyanomethoxy)-2,3-difluorophenyl)imidazo[1,2-a]pyrazin-8-yl)amino)benzamide] | 47 nM | –
CCc1cc(Nc2nccn3c(-c4ccc(OC)c(F)c4F)cnc23)ccc1C(=O)NCCCO[C@@H]1O[C@H](CO)[C@H](O)[C@H](O)[C@H]1N [Example 520, N-[3-[(2R,3R,4R,5R,6R)-3-amino-4,5-dihydroxy-6-(hydroxymethyl)oxan-2-yl]oxypropyl]-4-[[3-(2,3-difluoro-4-methoxyphenyl)imidazo[1,2-a]pyrazin-8-yl]amino]-2-ethylbenzamide;formic acid] | 110 nM | –
N#CCOc1ccc(-c2cnc3c(Nc4ccc(C(=O)NCCCCCCCN)c(Cl)c4)nccn23)c(F)c1F [Example 521, N-(7-aminoheptyl)-2-chloro-4-((3-(4-(cyanomethoxy)-2,3-difluorophenyl)imidazo[1,2-a]pyrazin-8-yl)amino)benzamide] | 24 nM | –
